Measurements as given in patent publication US20220241316A1, “25-HYDROXYCHOLESTEROL (25HC), CRYAB AGGREGATION INHIBITOR, IS A NOVEL SENOLYTIC” (Buck Institute for Research on Aging, priority 2019, published 2022).
“Also recorded” adds a separate entry of the source.

Tests used:
[1] = system: senescent cells; assay: Evaluation of senolytic effects of 25HC, oxysterols and 25HC analogs in cell culture; format: cell-based; settings: cell type not stated
From the text: Genetic knockdown of this gene kills senescent cells.
There are some commercially available analogs of 25HC such as oxysterols (Griffiths et al. (2019) Biochem Soc Trans., 47: 517-526).

[2] = molecular target: T1, CRYAB protein (Homo sapiens, UniProt P02511); assay: Inhibition of CRYAB protein aggregation; settings: stated with reference to Example 1; no aggregation test described
T1 sequence (P02511 1-175): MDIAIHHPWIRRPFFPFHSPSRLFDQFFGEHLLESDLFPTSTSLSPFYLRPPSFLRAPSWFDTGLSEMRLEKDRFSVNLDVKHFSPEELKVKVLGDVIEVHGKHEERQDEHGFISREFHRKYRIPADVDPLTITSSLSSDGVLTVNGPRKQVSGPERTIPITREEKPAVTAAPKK

[3] = system: senescent human fetal lung fibroblast (IMR-90); assay: Cell viability assay (Cell Counting Kit-8) on NS and SEN IMR-90 cells; format: cell-based; settings: treatment started immediately after removing DMSO/250 nM Doxo; 72 hrs; normalized to DMSO
Procedure: Panel A) Timeline for DMSO/250 nM Doxo treatment and early-time point timeline for 24(S)-HC and 27HC treatment on NS and SEN cells. 24(S)HC and 27HC treatment were started immediately after removing DMSO/Doxo. Panel B) and C) Cell viability assay were performed on NS and SEN cells treated with different concentrations of 24(S)HC and 27HC, respectively. 24(S)HC and 27HC treatment were done for 72 hrs. The cell viability was analyzed by Cell Counting Kit-8 according to the manufactures' protocol using Spectra Max 190 (Molecular Devices). The value was normalized to that of DMSO. (Mean+/−SE, n=3, *p<0.05, **p<0.01 and ***p<0.001 by student's t-test).

[4] = system: p16INK4a mRNA; assay: qPCR of p16INK4a mRNA in Doxo treated mDFs; format: cell-based, mouse; settings: 250 nM Doxo for 24 hours; day 1, 5, 14; normalized to β-actin, vs DMSO
Procedure: (§1) As shown, mDFs undergo senescence upon 250 nM of Doxo treatment for 24 hours (Day 0). Real-time quantitative PCR (qPCR) was performed on RNA samples isolated from DMSO treated NS (Non-Senescent) mDF cells or Doxo treated SEN (Senescent) mDF cells at day 1, 5, and 14 after Doxo treatment. The amount of mRNA was normalized to the level of β-actin (see, e.g., Demaria et al. (2017) Cancer Discovery, 2: 165-176; and references cited therein). Relative levels of p16INK4a mRNA for DMSO and Doxo treated mDFs was measured. The average value of DMSO is expressed as 1. (Mean+/−SE, n=4, **p<0.01, ****p<0.0001 by Dunnett's multiple comparisons test vs DMSO).

[5] = system: CRYAB mRNA; assay: qPCR of CRYAB mRNA in Doxo treated mDFs; format: cell-based, mouse; settings: Doxo treated SEN mDFs day 1, 5, 14; normalized to β-actin, vs DMSO
Procedure: as §1, with “Real-time” for “As shown, mDFs undergo senescence upon 250 nM of Doxo treatment for 24 hours (Day 0). Real-time”, “NS” for “NS (Non-Senescent)”, “SEN” for “SEN (Senescent)”, “CRYAB” for “p16INK4a”, “*p<0.05, ***p<0.001” for “**p<0.01, ****p<0.0001”

[6] = system: CRYAB mRNA; assay: qPCR of CRYAB mRNA in Doxo treated FAPs; format: cell-based, mouse; settings: 250 nM doxorubicin 24 hrs; normalized to β-actin, vs DMSO
Procedure: The cells were treated with 250 nM doxorubicin and incubated for 24 hrs (Day 0). The mRNA was extracted from DMSO treated NS or Doxo treated SEN FAPs at the indicated time points and quantified by qPCR. The amount of mRNA was normalized to the level of β-actin mRNA. The average value of DMSO is expressed as 1 (Mean+/−SE, n=3, **p<0.01 and ***p<0.001 by Dunnett's multiple comparisons test vs DMSO).

[7] = system: p16INK4a mRNA; assay: qPCR of p16INK4a mRNA in Doxo treated FAPs; format: cell-based, mouse; settings: 250 nM Doxo for 24 hours; normalized to β-actin, vs DMSO
Procedure: As shown, FAPs undergo senescence upon 250 nM of Doxo treatment for 24 hours (Day 0). The mRNA was extracted from DMSO treated NS or Doxo treated SEN FAPs at indicated time points and quantified by qPCR. The amount of mRNA was normalized to the level of β-actin. The graphs show the relative levels of p16INK4a mRNA for DMSO and Doxo treated samples. The average value of DMSO is expressed as 1 (Mean+/−SE, n=3, *p<0.05 by Dunnett's multiple comparisons test vs DMSO).

[8] = system: senescent FAPs; assay: Cell viability assay on NS and SEN FAPs treated with 25HC; format: cell-based, mouse; settings: 25HC started immediately after removing DMSO/Doxo (early-time point); treatment total 5 days; normalized to 0 uM
Procedure: Panel A) Timeline for DMSO/Doxo treatment and early-time point timeline for 25HC treatment on NS and SEN cells. 25HC treatment was started immediately after removing DMSO/Doxo. Panel B) Cell viability assay was performed on NS and SEN cells treated with different concentrations of 25HC. 25HC treatment was done for total 5 days. The value was normalized to that of 0 uM. The average value of 0 μM is expressed as 100% (Mean+/−SE, n=3, **p<0.01 and ***p<0.001 by student's t-test vs NS).

[9] = system: senescent mDFs; assay: Cell viability assay on NS and SEN mDFs treated with 25HC; format: cell-based, mouse; settings: treatment 72 hrs
Procedure: (§2) Panel A) Timeline for DMSO/Doxo treatment and early-time point timeline for 25HC treatment on NS and SEN cells. 25HC treatment was started immediately after removing DMSO/Doxo. Panel B) Cell viability assay was performed on NS and SEN cells treated with different concentrations of 25HC. 25HC treatment was done for 72 hrs. (Mean+/−SD, n=3, *p<0.05, **p<0.01 vs 0 uM by student's t-test).
as §2, with “late-time” for “early-time”, “7 days” for “immediately”, “n=6, **p<0.01, ***p<0.001, **** p<0.0001,” for “n=3, *p<0.05, **p<0.01”

[10] = molecular target: T1, CRYAB protein; settings: from Makley et al. (2015) / Xu et al. (2017); cited from earlier work

Structure (SMILES)	Senolytic effect [1]	Inhibition of CRYAB protein aggregation (as asserted in the description) [2]	other results
C[C@H](CCC(=O)O)[C@H]1CCC2[C@@H]3CC=C4C[C@H](O)CC[C@]4(C)C3CC[C@@]21C (stereo partly drawn) [(3alpha,9xi,14xi)-3-hydroxychol-5-en-24-oic acid]	novel senolytics	effective inhibitors of CRYAB protein aggregation	
C[C@@H](CCCC(C)(O)c1ccccc1)C1CCC2C3CC=C4C[C@H](O)CC[C@@]4(C)C3CC[C@]21C (relative stereo) [rel-(3R,10S,13S)-17-[(2S)-6-hydroxy-6-phenylheptan-2-yl]-10,13-dimethyl-2,3,4,7,8,9,10,11,12,13,14,15,16,17-tetradecahydro-1H-cyclopenta[a]phenanthren-3-ol]	novel senolytics	effective inhibitors of CRYAB protein aggregation	
C[C@@H](CO)CCC[C@@H](C)[C@H]1CC[C@H]2[C@@H]3CC=C4C[C@@H](O)CC[C@]4(C)[C@H]3CC[C@]12C [27HC, 27-Hydroxycholesterol]	novel senolytics	effective inhibitor of CRYAB protein aggregation	Cell viability of NS and SEN IMR-90 cells, early-time point [3]: specifically kill senescent human fetal lung fibroblast; also recorded: specifically kill senescent IMR-90 cells
CC(C)CCC[C@@H](C)[C@H]1CC[C@H]2[C@@H]3[C@H](O)C=C4C[C@@H](O)CC[C@]4(C)[C@H]3CC[C@]12C [7αHC, 7α-Hydroxycholesterol]	novel senolytics	effective inhibitors of CRYAB protein aggregation	
CC(CCCN(C)C)C1CCC2C3CC=C4C[C@@H](O)CC[C@]4(C)C3CC[C@]12C (stereo partly drawn) [(3S,10R,13R)-17-(5-(dimethylamino)pentan-2-yl)-10,13-dimethyl-2,3,4,7,8,9,10,11,12,13,14,15,16,17-tetradecahydro-1H-cyclopenta[a]phenanthren-3-ol]	novel senolytics	effective inhibitors of CRYAB protein aggregation	
CC(=O)CCC[C@@H](C)[C@H]1CC[C@H]2[C@@H]3CC=C4C[C@@H](O)CC[C@]4(C)[C@H]3CC[C@]12C [27-Nor-25-ketocholesterol]	novel senolytics	effective inhibitors of CRYAB protein aggregation	
C=C1CC[C@@H](O)CC1=C/C=C1\CCC[C@]2(C)[C@@H]([C@H](C)CCCC(C)(C)O)CC[C@@H]12 [Calcifediol 25-Hydroxyvitamin D3, reference compound]	novel senolytics	effective inhibitors of CRYAB protein aggregation	
COc1cccc2c1C(=O)c1c(O)c3c(c(O)c1C2=O)C[C@@](O)(C(=O)CO)C[C@@H]3O[C@H]1C[C@H](N)[C@H](O)[C@H](C)O1 [Doxo, doxorubicin]			Relative level of p16INK4a mRNA in mDFs [4]: induces senescence marker, p16INK4a; Relative level of CRYAB mRNA in mDFs [5]: upregulated CRYAB; Relative level of CRYAB mRNA in FAPs [6]: significantly increased; Relative level of p16INK4a mRNA in FAPs [7]: induced senescence
C[C@H](CCCC(C)(C)O)[C@H]1CC[C@H]2[C@@H]3CC=C4C[C@@H](O)CC[C@]4(C)[C@H]3CC[C@]12C [25HC, 25-hydroxycholesterol]	novel senolytic agent	effective inhibitor of CRYAB protein aggregation	Cell viability of NS and SEN FAPs [8]: specifically kills senescent FAPs; Cell viability of NS and SEN mDFs, late-time point ([9]; 25HC started 7 days after removing DMSO/Doxo): specifically kills senescent mDFs at late-timepoint; Cell viability of NS and SEN mDFs, early-time point ([9]; 25HC started immediately after removing DMSO/Doxo): specifically kills senescent mDFs at early-timepoint; Inhibition of CRYAB / CRYAB protein aggregation (literature) [10]: effective inhibitor of CRYAB
CC(C)CCC[C@@H](C)[C@H]1CC[C@H]2[C@@H]3[C@@H](O)C=C4C[C@@H](O)CC[C@]4(C)[C@H]3CC[C@]12C [7βHC, 7β-Hydroxycholesterol]	novel senolytics	effective inhibitors of CRYAB protein aggregation	
C[C@H](CCCC(C)(C)O)[C@H]1CC[C@H]2[C@@H]3[C@H](O)C=C4C[C@@H](O)CC[C@]4(C)[C@H]3CC[C@]12C [7α,25-Dihydroxycholesterol]	novel senolytics	effective inhibitors of CRYAB protein aggregation	
CC(C)[C@@H](O)CC[C@@H](C)[C@H]1CC[C@H]2[C@@H]3CC=C4C[C@@H](O)CC[C@]4(C)[C@H]3CC[C@]12C [24(S)HC, 24(S)-Hydroxycholesterol]	novel senolytics	effective inhibitor of CRYAB protein aggregation	Cell viability of NS and SEN IMR-90 cells, early-time point [3]: specifically kill senescent human fetal lung fibroblast; also recorded: specifically kill senescent IMR-90 cells
CC(C)CC[C@@H](O)[C@@H](C)[C@H]1CC[C@H]2[C@@H]3CC=C4C[C@@H](O)CC[C@]4(C)[C@H]3CC[C@]12C [22(R)HC, 22(R)-Hydroxycholesterol]	novel senolytics	effective inhibitors of CRYAB protein aggregation	
